Data as given in ChEMBL document CHEMBL1150268, “Novel potent and selective thrombin inhibitors based on a central 1,4-benzoxazin-3(4H)-one scaffold” (J Med Chem, 2008).

Tests used:
[1] = biological target: Coagulation factor X (Homo sapiens, UniProt P00742); assay: Inhibition of factor 10a
[2] = Selectivity for trypsin over thrombin
[3] = Selectivity for factor 10a over thrombin
[4] = Inhibition of trypsin
[5] = biological target: Prothrombin (Homo sapiens, UniProt P00734); assay: Inhibition of thrombin

Coagulation factor X, sequence (P00742 41-179 limits assumed): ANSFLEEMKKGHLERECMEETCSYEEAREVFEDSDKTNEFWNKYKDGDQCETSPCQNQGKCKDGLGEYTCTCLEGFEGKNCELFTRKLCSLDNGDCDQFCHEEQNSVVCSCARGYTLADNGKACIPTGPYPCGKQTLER
Coagulation factor X, sequence (P00742 235-488 limits assumed): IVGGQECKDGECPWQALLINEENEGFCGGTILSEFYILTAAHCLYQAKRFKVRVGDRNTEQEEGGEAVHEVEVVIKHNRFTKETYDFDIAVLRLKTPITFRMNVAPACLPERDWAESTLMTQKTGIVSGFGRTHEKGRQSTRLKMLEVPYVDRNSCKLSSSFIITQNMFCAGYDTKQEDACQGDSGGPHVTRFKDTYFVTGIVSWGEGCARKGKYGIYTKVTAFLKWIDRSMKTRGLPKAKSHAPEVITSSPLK

Compound	Ki [1] [µM]	Ratio Ki [2]	Ratio Ki [3]	Ki [4] [µM]	Ki [5] [µM]
COC(=O)C(Cc1ccccc1)C(=O)Nc1ccc2c(c1)OC(Cc1ccc(C(=N)N)cc1)C(=O)N2C (stereo not given)	58.7	4.1	22	11.2	2.73
CCOC(=O)C(=O)N(Cc1ccccc1)c1ccc2c(c1)OC(Cc1ccc(C(=N)N)cc1)C(=O)N2C (stereo not given)	1.94	1190	537	4.29	0.0036
CN1C(=O)C(Cc2ccc(C(=N)N)cc2)Oc2cc(N(Cc3ccccc3)C(=O)CC(=O)O)ccc21 (stereo not given)	139	112000	52500	298	0.0026
CN1C(=O)C(Cc2ccc(C(=N)N)cc2)Oc2cc(NC(=O)C(Cc3ccccc3)C(=O)O)ccc21 (stereo not given)	33.2	1.7	11	5.13	2.94
CN1C(=O)C(Cc2ccc(C(=N)N)cc2)Oc2cc(N(Cc3ccccc3)C(=O)CCC(=O)O)ccc21 (stereo not given)	15.9	1130	2430	7.41	0.0065
CCOC(=O)CCC(=O)N(Cc1ccccc1)c1ccc2c(c1)OC(Cc1ccc(C(=N)N)cc1)C(=O)N2C (stereo not given)	1.05	535	181	3.1	0.0058
COC(=O)CC(=O)N(Cc1ccccc1)c1ccc2c(c1)OC(Cc1ccc(C(=N)N)cc1)C(=O)N2C (stereo not given)	5.71	1130	1690	3.82	0.0034
CN1C(=O)C(Cc2ccc(C(=N)N)cc2)Oc2cc(N(Cc3ccccc3)C(=O)C(=O)O)ccc21 (stereo not given)	9.27	910	835	10.1	0.011
